Reference: ChEMBL document CHEMBL1201862, “PubChem BioAssay data set” (2004)
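Method: 48-hour compound exposure of cells in 96-well plates, five concentrations, linear interpolation of endpoints. GI50 = concentration required for 50% inhibition of growth.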 The source made the active and inactive calls. Rule as the data show it: active = GI50 up to about 1.1 µM and inactive = higher.

Legend:
Test in all cases: DTP human tumour cell line panel, 48 h
LXFL 529 = system: LXFL 529
RXF 631 = system: RXF 631
DMS-114 = system: DMS-114
M19-MEL = system: M19-MEL
DLD-1 = system: DLD-1
SNB-78 = system: SNB-78
XF498 = system: XF498
KM-20L2 = system: KM-20L2
HOP-18 = system: HOP-18

Measured: GI50

O=NN(CCCl)C(=O)N[C@H]1CC[C@@H](C(=O)O)CC1
inactive: LXFL 529 > 100 µM | RXF 631 > 100 µM | DMS-114 52.7 µM | M19-MEL > 100 µM | DLD-1 > 100 µM | SNB-78 > 100 µM | XF498 > 100 µM | KM-20L2 > 100 µM | HOP-18 > 69.5 µM

CC1CCC(O)C(C(O)CC2CC(=O)N(C)C(=O)C2)C1 (stereo unspecified)
inactive: LXFL 529 > 100 µM | RXF 631 > 100 µM | DMS-114 > 100 µM | M19-MEL > 100 µM | DLD-1 > 100 µM | SNB-78 > 100 µM | XF498 > 100 µM | KM-20L2 > 100 µM | HOP-18 > 100 µM

C[N+](C)=c1nc(N2CCc3ccccc3C2)ss1.[O-][Cl+3]([O-])([O-])[O-]
inactive: LXFL 529 69.3 µM | RXF 631 > 100 µM | DMS-114 60.1 µM | M19-MEL > 100 µM | DLD-1 90.4 µM | SNB-78 > 100 µM | KM-20L2 > 100 µM | HOP-18 > 100 µM

CC1=C(C#N)C(N)=C2C(C)=C(C#N)C(N)=C12
inactive: LXFL 529 > 100 µM | DMS-114 > 100 µM | M19-MEL > 100 µM | DLD-1 > 100 µM | SNB-78 > 100 µM | XF498 > 100 µM | KM-20L2 > 100 µM

CCCCCCCCCC(=O)Oc1cccc2onc(C)c12
inactive: LXFL 529 > 100 µM | RXF 631 > 100 µM | DMS-114 > 100 µM | M19-MEL > 100 µM | DLD-1 > 100 µM | SNB-78 > 100 µM | KM-20L2 > 100 µM | HOP-18 > 100 µM

Oc1ncnc2c1nnn2CCCCCCCCCCCCn1nnc2c(O)ncnc21
inactive: LXFL 529 33.6 µM | DMS-114 7.06 µM | M19-MEL > 100 µM | DLD-1 > 91.2 µM | SNB-78 19.2 µM | KM-20L2 > 100 µM | HOP-18 24.2 µM

COc1ccc([C@H]2CC(=O)N3CCCC3N2)cc1 (stereo partly specified)
inactive: LXFL 529 > 100 µM | DMS-114 > 100 µM | M19-MEL > 100 µM | DLD-1 > 100 µM | SNB-78 > 100 µM | XF498 > 100 µM | KM-20L2 > 100 µM | HOP-18 43 µM

Cc1nn2c(=O)n(-c3cccc(-n4nnc5c(-c6ccccc6)c(C)nn5c4=O)c3C)nnc2c1-c1ccccc1
inactive: LXFL 529 24.7 µM | DMS-114 13.8 µM | M19-MEL 23.6 µM | DLD-1 22.8 µM | SNB-78 82.2 µM | XF498 20.9 µM | KM-20L2 19.5 µM | HOP-18 4.94 µM

C=C(C)C1CCC2(C)CC1c1c(c(C)cc3c1[nH]c1ccccc13)O2 (stereo unspecified)
inactive: LXFL 529 > 25 µM | DMS-114 > 25 µM | M19-MEL > 25 µM | DLD-1 > 25 µM | XF498 > 25 µM | KM-20L2 > 25 µM

Brc1ccc2c(c1)C1(c3cc(Br)ccc3-2)c2cc(Br)ccc2-c2ccc(Br)cc21
inactive: LXFL 529 > 100 µM | RXF 631 > 100 µM | DMS-114 > 100 µM | M19-MEL > 100 µM | DLD-1 > 100 µM | SNB-78 > 100 µM | XF498 > 100 µM | KM-20L2 > 100 µM | HOP-18 > 100 µM

Nc1ccc(C(=O)N/C(=C\c2cccc([N+](=O)[O-])c2)c2nc3c4c(ccc3[nH]2)C(=O)c2ccccc2C4=O)cc1
inactive: LXFL 529 16.5 µM | RXF 631 29.9 µM | DMS-114 8.18 µM | M19-MEL > 100 µM | DLD-1 11.2 µM | SNB-78 > 100 µM | XF498 > 100 µM | KM-20L2 > 100 µM | HOP-18 11 µM

Cn1cnc([N+](=O)[O-])c1Sc1nc2cccnc2[nH]1
inactive: LXFL 529 39.2 µM | RXF 631 1.73 µM | DMS-114 24.8 µM | DLD-1 25.6 µM | SNB-78 > 100 µM | XF498 45.8 µM | KM-20L2 > 100 µM | HOP-18 70.1 µM

O=C(c1ccccc1)C(c1ccccc1)C1(O)C(=O)Nc2c(Cl)ccc(Cl)c21 (stereo unspecified)
inactive: LXFL 529 17.2 µM | DMS-114 17 µM | DLD-1 18.2 µM | SNB-78 25.5 µM | KM-20L2 34.2 µM | HOP-18 24.2 µM

CC(C)(C)NN=C1C(C)(C)C(=NNC(C)(C)C)C1(C)C
inactive: LXFL 529 > 100 µM | DMS-114 > 100 µM | M19-MEL > 100 µM | DLD-1 > 100 µM | SNB-78 > 100 µM | XF498 > 100 µM | KM-20L2 > 100 µM

COC(=O)N1[C@H]2Cc3c(OC)c(C)c(OC)c(OC)c3[C@@H]1/C(=C\c1cc(OC)c(OC)c(C)c1OC)N(Cc1ccccc1)C2=O
inactive: LXFL 529 22 µM | DMS-114 14.7 µM | M19-MEL 19.9 µM | DLD-1 76.9 µM | KM-20L2 46.2 µM | HOP-18 41.8 µM

C/C(CN1C(=O)c2ccccc2C1=O)=N\NS(C)(=O)=O
inactive: LXFL 529 > 100 µM | DMS-114 > 100 µM | M19-MEL > 100 µM | DLD-1 > 100 µM | SNB-78 > 100 µM | XF498 > 100 µM | KM-20L2 > 100 µM | HOP-18 > 100 µM

CCOC(=O)C1Oc2ccc([N+](=O)[O-])c3c2C1(O)CCC3 (stereo unspecified)
inactive: LXFL 529 > 100 µM | RXF 631 > 100 µM | DMS-114 > 100 µM | M19-MEL > 100 µM | DLD-1 > 100 µM | SNB-78 > 100 µM

N#C/C(=C/c1cccc(Oc2ccccc2)c1)c1ccccc1
inactive: LXFL 529 > 100 µM | DMS-114 51.8 µM | M19-MEL > 100 µM | DLD-1 > 100 µM | SNB-78 > 100 µM | XF498 > 100 µM | HOP-18 > 100 µM

O=C(O)CCSC(=O)Nc1cccc2ccccc12
inactive: LXFL 529 > 100 µM | RXF 631 > 100 µM | DMS-114 > 100 µM | M19-MEL > 100 µM | DLD-1 > 100 µM | SNB-78 > 100 µM | XF498 > 100 µM | KM-20L2 > 100 µM | HOP-18 > 100 µM

O=C(Cc1ccccc1)NN1C(=O)C(Cl)C1c1ccc(O)cc1 (stereo unspecified)
inactive: DMS-114 > 100 µM | M19-MEL > 100 µM | DLD-1 > 100 µM | KM-20L2 > 100 µM | HOP-18 > 100 µM

N/C(=N\N=C=C1C(=O)Nc2ccc(F)cc21)NO
inactive: LXFL 529 > 100 µM | RXF 631 > 100 µM | DMS-114 > 100 µM | M19-MEL > 100 µM | DLD-1 > 100 µM | SNB-78 > 100 µM | XF498 > 100 µM

CC(C)(C)OC(=O)NC(CO)c1cccc(OCc2ccccc2)c1 (stereo unspecified)
inactive: LXFL 529 > 100 µM | DMS-114 23.1 µM | M19-MEL > 89.7 µM | DLD-1 > 100 µM | SNB-78 83.4 µM | XF498 > 100 µM | KM-20L2 > 100 µM | HOP-18 > 100 µM

C=CCC1([C@H](C)[C@@H](OC(C)=O)c2cc(OC)c(OC)c(OC)c2)C[C@@H](OC)CCC1=O (stereo partly specified)
inactive: LXFL 529 14.3 µM | DMS-114 12.4 µM | M19-MEL 15.6 µM | DLD-1 16.2 µM | XF498 17.9 µM | KM-20L2 12 µM

COC1=CC(=O)C2C(C1=O)C(c1ccc(Cl)cc1)[C@@H]2C (stereo partly specified)
inactive: LXFL 529 17.5 µM | DMS-114 21.5 µM | M19-MEL 33.7 µM | DLD-1 25.9 µM | SNB-78 36.8 µM | XF498 18.3 µM | KM-20L2 51.1 µM | HOP-18 12.2 µM

COC(=O)c1cc(Br)c(Br)n1C
inactive: LXFL 529 > 100 µM | RXF 631 > 100 µM | DMS-114 > 100 µM | M19-MEL > 100 µM | DLD-1 81.8 µM | SNB-78 > 100 µM | XF498 > 100 µM | KM-20L2 > 100 µM | HOP-18 > 100 µM

COc1ccc(/C=C\c2cc(OC)c(OC(C)=O)c(OC)c2)cc1
inactive: LXFL 529 19.7 µM | RXF 631 23.5 µM | DMS-114 4.78 µM | M19-MEL 8.91 µM | DLD-1 14.2 µM | SNB-78 25.5 µM | XF498 30.3 µM | KM-20L2 29.5 µM
